Measurements as given in patent publication US12410160B2 (Gilead Sciences, Inc., priority 2021, dated 2025).
Like-named read-outs stand apart in the source and are kept apart here.

What was measured:
[1] = target: human KHK-C (Homo sapiens (Human), UniProt P50053); experiment: KHK Biochemical Assay (IC50), ADP-Glo, KHK-C; conditions: average of at least two separate assays
Summary of the method: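 Luminescent ADP-Glo read-out of ADP made by His-tagged KHK (BL21 (DE3) expression, Ni-NTA). Enzyme and compound sat together 30 min before ATP/fructose addition, then reacted 4 h at RT in Hepes pH 7.4 buffer with KCl, MgCl2, Triton-X. Quench 1 h, detection 1 h.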

[2] = test system: HepG2 cells; experiment: F1P Cell-Based Assay (EC50), 13C6-fructose-1-phosphate in HepG2 cells (cell culture medium or 50% human plasma)
[3] = Homo sapiens, HepG2, HepG2 cells, 50% human plasma, read-out: F1P 50% HP EC50
[4] = Homo sapiens, HepG2, read-out: F1P 10% FBS EC50, HepG2 cells, cell culture medium (10% FBS)
[5] = HepG2 cells, 50% human plasma, read-out: F1P 50% HP EC50
[6] = read-out: F1P 10% FBS EC50, HepG2 cells, cell culture medium (10% FBS)

human KHK-C, sequence (P50053 whole entry): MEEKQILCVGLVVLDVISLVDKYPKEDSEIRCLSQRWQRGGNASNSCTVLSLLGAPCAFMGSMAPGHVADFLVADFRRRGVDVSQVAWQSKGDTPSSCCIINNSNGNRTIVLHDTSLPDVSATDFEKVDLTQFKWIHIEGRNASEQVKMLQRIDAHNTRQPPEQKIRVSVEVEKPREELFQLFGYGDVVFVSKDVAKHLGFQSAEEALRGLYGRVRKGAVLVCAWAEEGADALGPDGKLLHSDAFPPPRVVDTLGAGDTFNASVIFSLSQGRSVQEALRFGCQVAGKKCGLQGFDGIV

Row | SMILES | IC50 [1] [nM] | EC50 [2, 3] [nM] | EC50 [2, 4] [nM] | EC50 [2, 5] [nM] | EC50 [2, 6] [nM] | EC50 ([2]; Homo sapiens, HepG2, read-out: F1P 10% FBS EC50) [nM] | EC50 ([2]; Homo sapiens, HepG2, read-out: F1P 50% HP EC50) [nM]
1 | C[C@H]1[C@@H](F)CN1c1nc(-c2ccc3c(c2)OC[C@@H]3NS(C)(=O)=O)c2c(n1)C(F)(F)CC2 [Example 524, N—((R)-6-(7,7-difluoro-2-((2S,3S)-3-fluoro-2-methylazetidin-1-yl)-6,7-dihydro-5H-cyclopenta[d]pyrimidin-4-yl)-2,3-dihydrobenzofuran-3-yl)methanesulfonamide] | 1 | 60.1 | 8.2 |  |  |  | 
2 | COc1cc(-c2nc(N3C[C@@H](O)[C@@H]3C)nc3c2CCC3(F)F)cc2c1[C@@H](NS(C)(=O)=O)CO2 [Example 529, N-(6-(7,7-difluoro-2-((2S,3R)-3-hydroxy-2-methylazetidin-1-yl)-6,7-dihydro-5H-cyclopenta[d]pyrimidin-4-yl)-4-methoxy-2,3-dihydrobenzofuran-3-yl)methanesulfonamide] | 2.7 |  |  | 65.3 | 26.2 |  | 
3 | COc1cc(-c2nc(N3C[C@@H](O)[C@@H]3C)nc3c2CCC3(F)F)cc2c1[C@@H](NS(C)(=O)=O)CO2 [Example 530] | 1.5 |  |  | 142 | 29.7 |  | 
4 | C[C@H]1[C@H](O)CN1c1nc(-c2ccc3c(c2)CCCCC3NS(C)(=O)=O)c2c(n1)C(F)(F)CC2 (stereo partly drawn) [Example 547, N-(2-(7,7-difluoro-2-((2S,3R)-3-hydroxy-2-methylazetidin-1-yl)-6,7-dihydro-5H-cyclopenta[d]pyrimidin-4-yl)-6,7,8,9-tetrahydro-5H-benzo[7]annulen-5-yl)methanesulfonamide] | 33.6 | > 500 | 314 |  |  |  | 
5 | C[C@H]1[C@H](F)CN1c1nc(-c2ccc3c(c2)O[C@H](CO)CNC3=O)c2c(n1)C(F)(F)CC2 [Example 590, (S)-8-(7,7-difluoro-2-((2S,3R)-3-fluoro-2-methylazetidin-1-yl)-6,7-dihydro-5H-cyclopenta[d]pyrimidin-4-yl)-2-(hydroxymethyl)-3,4-dihydrobenzo[f][1,4]oxazepin-5(2H)-one] | 1.8 | 23.2 | 9.1 |  |  |  | 
6 | CCC1CNC(=O)c2ccc(-c3nc(N4C[C@@H](O)[C@@H]4C)nc4c3CCC4(F)F)cc2O1 (stereo partly drawn) [Example 591, 8-(7,7-difluoro-2-((2S,3R)-3-hydroxy-2-methylazetidin-1-yl)-6,7-dihydro-5H-cyclopenta[d]pyrimidin-4-yl)-2-ethyl-3,4-dihydrobenzo[f][1,4]oxazepin-5(2H)-one] | 5.5 | 36 | 13.5 |  |  |  | 
7 | C[C@H]1[C@H](O)CN1c1nc(-c2ccc3c(c2)OC(CF)CNC3=O)c2c(n1)C(F)(F)CC2 (stereo partly drawn) [Example 594, 8-(7,7-difluoro-2-((2S,3R)-3-hydroxy-2-methylazetidin-1-yl)-6,7-dihydro-5H-cyclopenta[d]pyrimidin-4-yl)-2-(fluoromethyl)-3,4-dihydrobenzo[f][1,4]oxazepin-5(2H)-one] | 3.3 | 21 | 12.6 |  |  |  | 
8 | C[C@H]1CCN1c1nc2c(c(-c3cccc(S(=N)(=O)C(F)F)c3)n1)CCC2 (stereo partly drawn) [Example 602, (difluoromethyl)(imino)(3-(2-((S)-2-methylazetidin-1-yl)-6,7-dihydro-5H-cyclopenta[d]pyrimidin-4-yl)phenyl)-λ^6-sulfanone] | 59.7 | > 500 | 92.9 |  |  |  | 
9 | C[C@H]1[C@H](O)CN1c1nc(-c2cccc(S(=N)(=O)C(F)F)c2)c2c(n1)C(F)(F)CC2 (stereo partly drawn) [Example 603, (3-(7,7-difluoro-2-((2S,3R)-3-hydroxy-2-methylazetidin-1-yl)-6,7-dihydro-5H-cyclopenta[d]pyrimidin-4-yl)phenyl)(difluoromethyl)(imino)-λ^6-sulfanone] | 25.5 | 103 | 77.2 |  |  |  | 
10 | C[C@H]1CCN1c1nc(-c2ccc3c(c2)[C@H](NS(C)(=O)=O)CC3)c2c(n1)C(F)(F)CC2 [Example 608, N—((R)-6-(7,7-difluoro-2-((S)-2-methylazetidin-1-yl)-6,7-dihydro-5H-cyclopenta[d]pyrimidin-4-yl)-2,3-dihydro-1H-inden-1-yl)methanesulfonamide] | 0.7 | 23.2 | 6.8 |  |  |  | 
11 | C[C@H]1[C@H](O)CN1c1nc(-c2cccc([C@H]3CCS(=O)(=O)N3)c2)c2c(n1)C(F)(F)CC2 [Example 617] | 3.5 |  |  | 30.7 | 10.2 |  | 
12 | C[C@H]1[C@H](O)CN1c1nc(-c2cccc(CN3CCCS3(=O)=O)c2)c2c(n1)C(F)(F)CC2 [Example 620] | 9.7 | 113 | 19.1 |  |  |  | 
13 | C[C@H]1[C@H](O)CN1c1nc(-c2ccc3c(c2)OC[C@@H]3NS(=O)(=O)C2CC2)c2c(n1)C(F)(F)CC2 [Example 625] | 1.5 | 72.2 | 17.6 |  |  |  | 
14 | C[C@H]1[C@H](O)CN1c1nc(-c2ccc3c(c2)OC[C@@H]3NS(=O)(=O)c2ccccc2)c2c(n1)C(F)(F)CC2 [Example 626, N-((R)-6-(7,7-difluoro-2-((2S,3R)-3-hydroxy-2-methylazetidin-1-yl)-6,7-dihydro-5H-cyclopenta[d]pyrimidin-4-yl)-2,3-dihydrobenzofuran-3-yl)benzenesulfonamide] | 26.8 | 123 | 35.6 |  |  |  | 
15 | C[C@H]1[C@H](O)CN1c1nc(-c2ccc3c(c2)OC[C@@H]3NS(=O)(=O)CC#N)c2c(n1)C(F)(F)CC2 [Example 627, 1-cyano-N-((R)-6-(7,7-difluoro-2-((2S,3R)-3-hydroxy-2-methylazetidin-1-yl)-6,7-dihydro-5H-cyclopenta[d]pyrimidin-4-yl)-2,3-dihydrobenzofuran-3-yl)methanesulfonamide] | 6 | 4.1 | 4.5 |  |  |  | 
16 | CC1(C)CC(NS(C)(=O)=O)c2ccc(-c3nc(N4CC[C@@H]4CF)nc4c3CCC4(F)F)cc21 (stereo partly drawn) [Example 629, N-(5-(7,7-difluoro-2-((R)-2-(fluoromethyl)azetidin-1-yl)-6,7-dihydro-5H-cyclopenta[d]pyrimidin-4-yl)-3,3-dimethyl-2,3-dihydro-1H-inden-1-yl)methanesulfonamide] | 4.1 | > 500 | 107 |  |  |  | 
17 | C[C@H]1[C@H](O)CN1c1nc(-c2ccc3c(c2)C(C)(C)CC3NS(C)(=O)=O)c2c(n1)C(F)(F)CC2 (stereo partly drawn) [Example 630, N-(5-(7,7-difluoro-2-((2S,3R)-3-hydroxy-2-methylazetidin-1-yl)-6,7-dihydro-5H-cyclopenta[d]pyrimidin-4-yl)-3,3-dimethyl-2,3-dihydro-1H-inden-1-yl)methanesulfonamide] | 2.4 | > 500 | 68.8 |  |  |  | 
18 | C[C@H]1CCN1c1nc(-c2ccc3c(c2)S(=O)(=O)CC3N)c2c(n1)C(F)(F)CC2 (stereo partly drawn) [Example 656, 6-[7,7-difluoro-2-[(2S)-2-methylazetidin-1-yl]-5,6-dihydrocyclopenta[d]pyrimidin-4-yl]-1,1-dioxo-2,3-dihydrobenzothiophen-3-amine] | 1.7 | 11.8 | 4.5 |  |  |  | 
19 | C[C@H]1[C@H](O)CN1c1nc(-c2ccc3c(c2)CCNC3)c2c(n1)C(F)(F)CC2 [Example 657, (2S,3R)-1-[7,7-difluoro-4-(1,2,3,4-tetrahydroisoquinolin-6-yl)-5,6-dihydrocyclopenta[d]pyrimidin-2-yl]-2-methyl-azetidin-3-ol] | 2.7 |  |  |  |  | 4.1 | 4.2
20 | C[C@H]1[C@H](O)CN1c1nc(-c2ccc([C@@H](N)C(F)F)cc2)c2c(n1)C(F)(F)CC2 [Example 659, (2S,3R)-1-[4-[4-[(1R)-1-amino-2,2-difluoro-ethyl]phenyl]-7,7-difluoro-5,6-dihydrocyclopenta[d]pyrimidin-2-yl]-2-methyl-azetidin-3-ol] | 8 | 54 | 42.5 |  |  |  | 
21 | C[C@H]1[C@H](O)CN1c1nc(-c2cccc(N=S(C)(=O)C3CC3)c2)c2c(n1)C(F)(F)CC2 (stereo partly drawn) [Example 667, (2S,3R)-1-[4-[3-[(cyclopropyl-methyl-oxo-λ^6-sulfanylidene)amino]phenyl]-7,7-difluoro-5,6-dihydrocyclopenta[d]pyrimidin-2-yl]-2-methyl-azetidin-3-431] | 42.3 |  |  | 305 | 61.3 |  | 
22 | C[C@H]1CCN1c1nc(-c2cccc(N=S(C)(=O)C3CC3)c2)c2c(n1)C(F)(F)CC2 (stereo partly drawn) [Example 668, cyclopropyl-[3-[7,7-difluoro-2-[(2S)-2-methylazetidin-1-yl]-5,6-dihydrocyclopenta[d]pyrimidin-4-yl]phenyl]imino-methyl-oxo-λ^6-sulfane] | 32.1 | > 500 | 46.7 |  |  |  | 
23 | C[C@H]1CCN1c1nc(-c2cccc(N=S3(=O)CCCC3)c2)c2c(n1)C(F)(F)CC2 [Example 669, 1-[3-[7,7-difluoro-2-[(2S)-2-methylazetidin-1-yl]-5,6-dihydrocyclopenta[d]pyrimidin-4-yl]phenyl]iminothiolane 1-oxide] | 16.2 | 429 | 28.6 |  |  |  | 
24 | C[C@H]1[C@H](O)CN1c1nc(-c2ccc3c(c2)OC[C@@H]3n2ccnn2)c2c(n1)C(F)(F)CC2 [Example 670] | 24.3 | 31.4 | 25.3 |  |  |  | 
25 | C[C@H]1[C@H](O)CN1c1nc(-c2cccc(N=S3(=O)CCCC3)c2)c2c(n1)C(F)(F)CC2 [Example 671, (2S,3R)-1-[7,7-difluoro-4-[3-[(1-oxothiolan-1-ylidene)amino]phenyl]-5,6-dihydroeyelopenta[d]pyrimidin-2-yl]-2-methyl-azetidin-3-ol] | 32.9 | 269 | 35.1 |  |  |  | 
